Experimental data taken from patent US11421145B2, “Oil recovery methods using a formulation containing an unsaturated zwitterionic surfactant and a polymer” (King Fahd University of Petroleum and Minerals, priority 2019, dated 2022).
“Also recorded” adds a separate entry of the source.

Assays:
[1] = Long-term thermal stability: aging at 90° C. for 15 days, phase behavior, NMR, FTIR; format: physicochemical
Method: The short-term thermal stability of the unsaturated surfactant was assessed using thermogravimetric analysis (TGA). The thermal stability for a longer period (2 weeks) was determined by FTIR and NMR. The synthesized unsaturated surfactant was dried and heated at 10° C./min in an SDT-Q600 instrument (TA Instruments) from room temperature to 600° C. under nitrogen atmosphere. The thermal stability for a longer period was determined by aging 1 wt % aqueous solution of the unsaturated surfactant at 90° C. for 15 days. FTIR, ^13C NMR, and ^1H NMR were used to identify the structural changes in the unsaturated surfactant after aging. A Nicolet 6700 spectrometer was used for FTIR analysis of the unsaturated surfactant, while a JEOL 500 MHz spectrometer was used for obtaining the NMR spectra.
For long-term thermal stability, 1 wt % surfactant solution was aged in sealed aging tubes at 90° C. for 15 days. […] The two methyl carbons directly attached to the quaternary nitrogen [—CH2—N^+—(CH3)2—CH2—] were detected at δ=50.8 ppm and the two methylene carbons directly attached to quaternary nitrogen [—CH2—N^+—(CH3)2—CH2—] at δ=62.2 and δ=62.7 ppm. The olefinic carbons in the unsaturated surfactant tail appeared at δ=129.6 and δ=130.0 ppm. The amide carbonyl group [—CH2—C═O—NH] resonated at δ=175.1 ppm. The peaks appearing in the ^13C-NMR spectra of the sample agreed with the proposed structure of the unsaturated surfactant. […] The carbons of two methyl groups connected with the central positively charged nitrogen [—CH2—N^+(CH3)2—CH2—] still present in the aged sample and were detected at δ=50.8 ppm. Similarly, the carbons of two methylene groups attached to the central positively charged nitrogen [—CH2—N^+(CH3)2—CH2—] were also detected at δ=62.2 and δ=62.7 ppm. […] In the ^1H-NMR spectrum of the unsaturated surfactant before aging (FIG. 5), the terminal methyl protons [—(CH2)n—CH3)] was detected at δ=0.84 ppm and the methylene protons [—(CH2)n—CH3)] in the unsaturated surfactant tail resonated at δ=1.23 ppm. […]

[2] = Surface tension by pendant-drop technique (CMC and surface properties); format: physicochemical
Method: The surface tension of the unsaturated surfactant in SW and FW at different temperatures was analyzed using a Biolin Scientific Attension instrument. The pendant-drop technique was used to measure the surface tension at 30° C. and 60° C. Other surface properties such as CMC, surface tension at CMC (γcmc), surfactant ability at lower surface tension (πcmc), maximum surface access (Γmax), and minimum area per molecule (Amin) were also obtained from the surface tension data. These surface properties were calculated using Eqs. 1-3,
where γ0 is the surface tension of the brine (FW or SW), NA is the Avogadro number, dγ/dlnC is the slope below CMC in the surface tension plot, C is the surfactant concentration in brine, T is temperature, R is the gas constant, and n=1 for zwitterionic surfactants [Wang, Y., Zhang, Y., Liu, X., Wang, J., Wei, L., & Feng, Y. (2014) Effect of a hydrophilic head group on Krafft temperature, surface activities and rheological behaviors of Erucyl Amidobetaines. Journal of Surfactants and Detergents, 17:295-301—incorporated herein by reference]. The interfacial tension between crude oil and water was measured using a spinning drop tensiometer from Kruss (SITE 100). All the reported points are the average equilibrium values.
Variations in the surface tension of the unsaturated surfactant with concentration at different temperatures and salinities are summarized in FIG. 7. […] The CMC and surface tension corresponding to the CMC (γcmc) were estimated from the breakpoint in surface tension versus concentration plots. […] A similar reduction in CMC with increasing NaCl concentration was reported for the alkyl amidosulfobetaine surfactant [Feng, Y., & Chu, Z. (2016) Correlating surface activity with structural and environmental parameters for alkylamidosulfobetaine surfactants. Colloid and Polymer Science, 294:957-963, incorporated herein by reference in its entirety]. However, in this disclosure, the reduction in the CMC was observed when SW was replaced with FW. The reduction in the CMC could be associated with the salting-out effect of the unsaturated surfactant hydrophobic tail, which got enhanced by increasing the salinity [Feng, Y., & Chu, Z. (2016) Correlating surface activity with structural and environmental parameters for alkylamidosulfobetaine surfactants. Colloid and Polymer Science, 294:957-963, incorporated herein by reference in its entirety].

long-term thermal stability ([1]; 90° C., 15 days, phase behavior, TGA, FTIR, NMR): excellent long-range thermal stability
Amin ([2]; FW, 60 °C): 0.28 nm^2
CMC ([2]; FW, 60 °C): 1.53 × × 10^−4 mol L^−1
Γmax × 10^6 ([2]; FW, 60 °C): 5.88 mol m^−2
γcmc ([2]; FW, 60 °C): 33.55 mN m^−1
πcmc ([2]; FW, 60 °C): 38.04 mN m^−1
Amin ([2]; SW, 30 °C): 0.22 nm^2
CMC ([2]; SW, 30 °C): 1.02 × × 10^−4 mol L^−1
Γmax × 10^6 ([2]; SW, 30 °C): 7.27 mol m^−2
γcmc ([2]; SW, 30 °C): 30.23 mN m^−1
πcmc ([2]; SW, 30 °C): 41.76 mN m^−1
Amin ([2]; SW, 60 °C): 0.29 nm^2
CMC ([2]; SW, 60 °C): 2.05 × × 10^−4 mol L^−1
Γmax × 10^6 ([2]; SW, 60 °C): 5.60 mol m^−2
γcmc ([2]; SW, 60 °C): 31.03 mN m^−1
πcmc ([2]; SW, 60 °C): 40.96 mN m^−1
CMC expressed as surfactant concentration ([2]; corresponding to 1.02×10^−4 mol L^−1): 0.005%
CMC ([2]; in FW (summary b150)): 0.000205 mol/L
CMC ([2]; in SW (summary b150)): 0.000102 mol/L
CMC ([2]; in SW and FW (as worded)): 0.000102 mol/L
Compound: CCCCCCCC/C=C\CCCCCCCC(=O)NCCC[N+](C)(C)CCCS(=O)(=O)[O-] [unsaturated surfactant, 3-(N-oleamidopropyl-N,N-dimethylammonium) propane sulfonate]
appearance of solution after aging ([1]; 1 wt % surfactant solution, sealed tubes, 90° C., 15 days): remained clear and there was no phase separation or precipitation
structure after aging (1H/13C NMR, FTIR) ([1]; aged 15 days at 90° C.): survival of original structure; also recorded: no structure degradation
